# Reference: patent publication US7939562B2, “Amphiphilic derivatives for the production of vesicles, micelles and complexants, and precursors thereof” (Ben-Gurion University of The Negev Research and Development …, priority 2001, dated 2011)
# Legend:
# [1] = system: bronchial epithelial cells; test: Uptake of complexed DNA plasmid by cells (confocal microscope); format: cell-based; conditions: DNA plasmid complexed with the amphiphile, compared to non-complexed DNA
# Experimental: Purified Derivative 4 was used to complex with a DNA plasmid (purchased from Sigma Chemicals, 5 ng/microliter, stained in FITC; ULSIS Alexa Fluor® 488 Nucleic acid labeling kit) or rhodamine. The complexation was achieved by mixing the amphiphilic Derivative 4 (200 microliters containing […] of the compound) with […] of the DNA sample and letting it shake gently for a short period of time. The mixture is not sonicated to prevent vesicle formation in which the DNA is encapsulated. The sample was then incubated in a culture containing bronchial epithelial cells.
# [2] = system: bronchial epithelial cells; test: Uptake of vesicle-encapsulated 14C-methylated albumin by cells (radioactivity); format: cell-based; conditions: 14C-methylated albumin encapsulated in vesicles, compared with non-encapsulated albumin
# Experimental: Derivative 10 was made into vesicles according to Example 41. […] The same method was used to encapsulate ^14C-methylated albumin (purchased from Sigma Chemicals) by adding 0.2 mg of the tagged albumin. The vesicles were purified by filtration and the presence of radioactivity in the purified sample indicated encapsulation.
# Vesicle size by TEM = format: physicochemical; design: unit not given here; conditions: bilayer vesicles
# Experimental: Two main methods were used to prepare the vesicles: In method (1), 100-200 μl of the amphiphilic derivative dissolved in methanol was injected into 2-4 ml of an aqueous solution which contained the compound to be encapsulated. The mixture was sonicated in a bath sonicator (Branson 2510) for a short (1,2,5,10 min) or long (60 min) period, depending on the desired vesicle size (dozen or hundred nanometer) and uniformity. In method (2), the amphiphilic derivative dissolved in methanol (250-1000 μl) was added to a 50-ml round-bottom flask, the solvent was removed under reduced pressure by a rotary evaporator and a thin oily film was formed on the flask bottom. An aqueous solution containing the compound desired to encapsulate (1-4 ml) was added to the flask and the mixture was sonicated in a bath sonicator for 1-5 min at 60° C.
# TEM (transmission electron microscopy) experiments were carried out using negative staining technique, employing saturated uranyl acetate solution (after centrifuge). The grid was immersed in the vesicle solution for 1.5 minutes and then was stained in the uranyl acetate solution for 1.5 min. The grid (300 mesh copper Formvar/carbon) was then dried at room temperature on filter paper. […]
# Derivative 10 was made into vesicles according to Example 41. […] The vesicles were purified by filtration and the presence of radioactivity in the purified sample indicated encapsulation.
vesicle size (Vesicle size by TEM),SMILES,uptake of DNA by the cells [1],uptake of the albumin by the cells [2]
,CCCCCC(OC(=O)CN(CCCN)CCCCN)C(O)CCCCC(=O)OC (stereo not drawn) [Derivative 4],significantly greater uptake of DNA,
350,CCCCCCCCCCCC[N+](C)(C)CC(=O)OC(CCCCC)C(O)C/C=C/CC(=O)NCCNC(=O)C/C=C/CC(O)C(CCCCC)OC(=O)C[N+](C)(C)CCCCCCCCCCCC (stereo not drawn) [Derivative 10],,significantly greater uptake of the albumin
